A word on the pIC50: it is the negative decadic logarithm of the IC50, by convention in mol/L.

Here are results for one compound from patent publication US9593197B2, “Trigger-responsive chain-shattering polymers” (THE BOARD OF TRUSTEES OF THE UNIVERSITY OF ILLINOIS, priority 2012, dated 2017).

A short description of the series: MTT cytotoxicity assay before and after UV treatment. The following applies: human, HeLa cells. A general note: Tetrazolium assays rely on reduction of a dye to a coloured formazan, in cell work by metabolically active cells.

pIC50: −log10 of the molar value.

Compound `CC[C@@]1(O)C(=O)OCc2c1cc1n(c2=O)Cc2cc3cc(O)ccc3nc2-1` [HCPT, 10-hydroxycamptothecin] had a pIC50 of 5.14 to 5.21.
